Here are results for 63 compounds from the Kinase Knowledgebase extract (Sharma et al. 2016).

In the test the target is PIK3CG (human) (UniProt P48736). The test is described as follows: Inhibition of PIK3CG Kinase Activity.
Sequence of PIK3CG (human) (P48736 whole entry, looked up): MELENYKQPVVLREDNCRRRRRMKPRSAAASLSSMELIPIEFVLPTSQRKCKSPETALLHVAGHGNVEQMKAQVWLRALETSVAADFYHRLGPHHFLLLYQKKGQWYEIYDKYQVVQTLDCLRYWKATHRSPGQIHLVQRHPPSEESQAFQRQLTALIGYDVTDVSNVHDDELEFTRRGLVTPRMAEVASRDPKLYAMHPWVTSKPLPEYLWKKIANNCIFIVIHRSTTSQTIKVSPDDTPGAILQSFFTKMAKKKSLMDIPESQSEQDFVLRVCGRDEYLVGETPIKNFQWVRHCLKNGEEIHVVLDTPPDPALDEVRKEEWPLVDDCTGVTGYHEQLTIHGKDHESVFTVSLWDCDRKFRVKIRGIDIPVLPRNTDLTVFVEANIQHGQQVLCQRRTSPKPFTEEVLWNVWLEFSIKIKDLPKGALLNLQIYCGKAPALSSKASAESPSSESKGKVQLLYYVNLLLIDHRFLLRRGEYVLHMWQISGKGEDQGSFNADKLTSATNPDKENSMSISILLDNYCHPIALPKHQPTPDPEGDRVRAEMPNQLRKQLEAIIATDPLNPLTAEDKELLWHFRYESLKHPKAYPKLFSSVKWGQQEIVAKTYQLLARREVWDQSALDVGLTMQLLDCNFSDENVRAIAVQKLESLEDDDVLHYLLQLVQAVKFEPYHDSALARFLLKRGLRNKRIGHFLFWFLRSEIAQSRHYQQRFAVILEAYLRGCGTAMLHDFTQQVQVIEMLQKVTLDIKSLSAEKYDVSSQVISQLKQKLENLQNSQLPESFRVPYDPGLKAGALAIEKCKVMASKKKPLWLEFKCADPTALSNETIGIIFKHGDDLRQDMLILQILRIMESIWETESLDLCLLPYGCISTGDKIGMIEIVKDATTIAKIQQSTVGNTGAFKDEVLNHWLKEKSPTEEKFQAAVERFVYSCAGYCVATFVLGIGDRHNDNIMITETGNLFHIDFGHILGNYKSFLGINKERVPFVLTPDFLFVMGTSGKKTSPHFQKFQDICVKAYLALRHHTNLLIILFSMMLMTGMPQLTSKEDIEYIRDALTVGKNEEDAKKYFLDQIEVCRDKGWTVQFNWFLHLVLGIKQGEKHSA

For orientation: IC50 means the concentration that gives 50% inhibition. The low end stands for greater potency in that assay, the high end for weaker potency in that assay. As for `CC(=O)Nc1nc2c(s1)-c1c(c(C3CC3)nn1-c1ccc(C(=O)N(C)[C@@H]3CCN(C4CCCC4)C3)c(C)c1)CC2`, the IC50 was < 600 nM.
With `CCCN1CCC(NC(=O)c2ccc(-n3nc(C4CCC4)c4c3-c3sc(NC(C)=O)nc3CC4)c(Cl)c2)CC1` the figure was < 600 nM; with `CC(=O)Nc1nc2c(s1)-c1c(c(C3CC3)nn1C1CCC(C(=O)N[C@H]3CC[C@H](N4CCCC4)CC3)CC1)CC2` (stereo partly drawn), < 600 nM.
Take `CC(=O)Nc1nc2c(s1)-c1c(c(C3CC3)nn1-c1ccc(C(=O)NC3CCN(CC4CCCC4)CC3)c(Cl)c1)CC2`: the IC50 was < 600 nM.
With `CC(=O)Nc1nc2c(s1)-c1c(c(C3CC3)nn1-c1ccc(CC(=O)N[C@@H]3CCN(C4CCCC4)C3)cc1Cl)CC2` the figure was < 600 nM; with `CC(=O)Nc1nc2c(s1)-c1c(c(C3CC3)nn1C1CCN(C(=O)N3CCC(N(C)C)CC3)CC1)CC2`, < 600 nM.
Then `CC(=O)Nc1nc2c(s1)-c1c(c(C3CC3)nn1-c1ccccc1Br)CC2`, with < 600 nM.
As for `CC(=O)Nc1nc2c(s1)-c1c(c(C3CC3)nn1-c1ccc(C(=O)N(C)[C@H]3CC[C@@H](N4CCCC4)CC3)c(Cl)c1)CC2`, the IC50 is < 600 nM.
As to `COc1cc(-n2nc(C3CC3)c3c2-c2sc(NC(C)=O)nc2CC3)ccc1C(=O)N(C)C1CCN(C2CCCC2)CC1`, the IC50 was < 600 nM.
As for `CC(=O)Nc1nc2c(s1)-c1c(c(C3CC3)nn1-c1ccc(C(=O)N(C)C3CCC(N(C)CC4CCCC4)CC3)c(F)c1)CC2` (stereo not drawn), the IC50 was < 600 nM.
For `CCN(C(=O)c1ccc(-n2nc(C3CC3)c3c2-c2sc(NC(C)=O)nc2CC3)cc1F)[C@H]1CC[C@@H](N2CCCC2)CC1`, the IC50 was < 600 nM.
Then `CC(=O)Nc1nc2c(s1)-c1c(c(C3CC3)nn1-c1ccc(C(=O)N[C@H]3CC[C@@H](N(C)CC4CCCC4)CC3)cc1Cl)CC2`, with < 600 nM; and `CC(=O)Nc1nc2c(s1)-c1c(c(C3CC3)nn1-c1ccc(C(=O)N(C)[C@@H]3CCN(CC4CCCC4)C3)cc1F)CC2`, with < 600 nM; and `CC(=O)Nc1nc2c(s1)-c1c(c(C3CC3)nn1-c1ccc(C(=O)NC3CCN(C)CC3)cc1Cl)CC2`, with < 600 nM.
With `CC(=O)Nc1nc2c(s1)-c1c(c(C3CC3)nn1-c1ccc(C(=O)N(C)[C@H]3CCN(C4CCCCC4)C3)c(Cl)c1)CC2` the figure was < 600 nM; with `CC(=O)Nc1nc2c(s1)-c1c(c(C3CC3)nn1-c1ccc(C(=O)N3CCN(C4CCCC4)CC3)c(Cl)c1)CC2`, < 600 nM.
With `CC(=O)Nc1nc2c(s1)-c1c(c(C3CC3)nn1-c1ccc(C(=O)N[C@H]3CC[C@@H](N4CCOCC4)CC3)cc1C)CC2` the figure was < 600 nM; with `CC(=O)Nc1nc2c(s1)-c1c(c(C3CC3)nn1-c1ccc(C(=O)N(C)[C@H]3CC[C@@H](N(C)CC4CCCC4)CC3)cc1F)CC2`, < 600 nM; with `CC(=O)Nc1nc2c(s1)-c1c(c(C3CC3)nn1-c1ccc(C(=O)NC3CCN(C4CCCCC4)CC3)c(Cl)c1)CC2`, < 600 nM.
Turning to `CC(=O)Nc1nc2c(s1)-c1c(c(C3CC3)nn1-c1ccc(C(=O)N[C@H]3CC[C@@H](N4CCOCC4)CC3)c(F)c1)CC2`, the IC50 was < 600 nM.
For the compound `CCCN1CCC(NC(=O)c2ccc(-n3nc(C4CC4)c4c3-c3sc(NC(C)=O)nc3CC4)c(C)c2)CC1`, the IC50 is < 600 nM.
With `COc1cc(-n2nc(C3CC3)c3c2-c2sc(NC(C)=O)nc2CC3)ccc1C(=O)NC1CCN(C2CCCC2)CC1` the figure was < 600 nM; with `CC(=O)Nc1nc2c(s1)-c1c(c(C3CC3)nn1-c1ccc(C(=O)N(C)[C@H]3CC[C@@H](N(C)CC4CC4)CC3)c(F)c1)CC2`, < 600 nM; with `CC(=O)Nc1nc2c(s1)-c1c(c(C3CC3)nn1C1CCN(C(=O)C3CCN(C4CCCC4)CC3)CC1)CC2`, < 600 nM.
Then `CC(=O)Nc1nc2c(s1)-c1c(c(C3CC3)nn1-c1ccc(C(=O)NC[C@H]3CCN(C4CCCC4)C3)c(Cl)c1)CC2`, with < 600 nM; and `CC(=O)Nc1nc2c(s1)-c1c(c(C3CCC3)nn1-c1ccc(C(=O)NC3CCN(CC4CCCC4)CC3)cc1Cl)CC2`, with < 600 nM.
Take `CC(=O)Nc1nc2c(s1)-c1c(c(C3CC3)nn1-c1ccc(C(=O)N[C@@H]3CCN(C4CCCCC4)C3)c(F)c1)CC2`: the IC50 was < 600 nM.
As to `CC(=O)Nc1nc2c(s1)-c1c(c(C3CC3)nn1-c1ccc(C(=O)N(C)[C@H]3CC[C@@H](N(C)CC4CCCC4)CC3)cc1C)CC2`, the IC50 is < 600 nM.
Then `CCN(C(=O)c1ccc(-n2nc(C3CC3)c3c2-c2sc(NC(C)=O)nc2CC3)c(C)c1)[C@H]1CC[C@@H](N2CCCC2)CC1`, with < 600 nM; and `CCCN1CCC(NC(=O)c2ccc(-n3nc(C4CC4)c4c3-c3sc(NC(C)=O)nc3CC4)cc2C)CC1`, with < 600 nM.
As for `CC(=O)Nc1nc2c(s1)-c1c(c(C3CC3)nn1-c1ccc(C(=O)N(C)[C@H]3CC[C@@H](N4CCCCC4)CC3)cc1F)CC2`, the IC50 is < 600 nM.
With `CC(=O)Nc1nc2c(s1)-c1c(c(C3CC3)nn1-c1ccc(C(=O)N(C)C)cc1Cl)CC2` the figure was < 600 nM.
As for `CC(=O)Nc1nc2c(s1)-c1c(c(C3CCC3)nn1-c1ccccc1Cl)CC2`, the IC50 was < 600 nM.
Then `CC(=O)Nc1nc2c(s1)-c1c(c(C3CC3)nn1-c1ccc(C(=O)NC3CCN(CC4CCCCC4)CC3)c(Cl)c1)CC2`, with < 600 nM.
With `CC(=O)Nc1nc2c(s1)-c1c(c(C3CC3)nn1-c1ccc(C(=O)NC3CCN(C4CCCCC4)CC3)c(C)c1)CC2` the figure was < 600 nM.
With `CC(=O)Nc1nc2c(s1)-c1c(c(C3CC3)nn1-c1ccc(C(=O)N(C)[C@@H]3CCN(CC4CCCC4)C3)c(Cl)c1)CC2`, the IC50 is < 600 nM.
Turning to `CC(=O)Nc1nc2c(s1)-c1c(c(C3CC3)nn1-c1ccc(CC(N)=O)cc1Cl)CC2`, the IC50 was < 600 nM.
Then `CNc1ccc(-n2nc(C3CC3)c3c2-c2sc(NC(C)=O)nc2CC3)c(Cl)c1`, with < 600 nM.
On to `CC(=O)Nc1nc2c(s1)-c1c(c(C3CC3)nn1-c1ccc(C(=O)NC3CCN(C4CCOCC4)CC3)cc1Cl)CC2`, for which the IC50 is < 600 nM.
Then `CC(=O)Nc1nc2c(s1)-c1c(c(C3CC3)nn1-c1ccc(C(=O)NCC3CCN(CC4CCCC4)CC3)cc1Cl)CC2`, with < 600 nM; and `CC(=O)Nc1nc2c(s1)-c1c(c(C3CC3)nn1-c1ccc(C(=O)N(C)[C@H]3CC[C@@H](N4CCCCC4)CC3)cc1C)CC2`, with < 600 nM; and `CC(=O)Nc1nc2c(s1)-c1c(c(C3CC3)nn1-c1ccc(C(=O)NC3CCN(CC4CCCC4)CC3)cc1Cl)CC2`, with < 600 nM.
Then `CC(=O)Nc1nc2c(s1)-c1c(c(C3CC3)nn1-c1ccc(C(=O)N[C@@H]3CCN(C4CCCCC4)C3)cc1Cl)CC2`, with < 600 nM; and `CC(=O)Nc1nc2c(s1)-c1c(c(C3CC3)nn1-c1ccc(C(=O)N[C@@H]3CCN(C4CCCCC4)C3)c(C)c1)CC2`, with < 600 nM; and `CC(=O)Nc1nc2c(s1)-c1c(c(C3CC3)nn1-c1ccc(C(=O)N[C@H]3CC[C@@H](N4CCCCC4)CC3)c(F)c1)CC2`, with < 600 nM.
Then `CC(=O)Nc1nc2c(s1)-c1c(c(C3CC3)nn1-c1ccc(C(=O)NC3CCN(CC4CCCCC4)CC3)cc1Cl)CC2`, with < 600 nM.
As to `CC(=O)Nc1nc2c(s1)-c1c(c(C3CC3)nn1-c1ccc(C(=O)N3CC[C@@H](CN4CCCC4)C3)c(Cl)c1)CC2`, the IC50 is < 600 nM.
Then `CC(=O)Nc1nc2c(s1)-c1c(c(C3CC3)nn1-c1ccc(C(=O)NCC3CCN(CC4CCCC4)CC3)c(Cl)c1)CC2`, with < 600 nM; and `CC(=O)Nc1nc2c(s1)-c1c(c(C3CC3)nn1-c1ccc(C(=O)N(C)[C@H]3CCN(C4CCCCC4)C3)c(F)c1)CC2`, with < 600 nM; and `CC(=O)Nc1nc2c(s1)-c1c(c(C3CC3)nn1-c1ccc(C(=O)N(C)[C@H]3CC[C@@H](N(C)CC4CC4)CC3)c(C)c1)CC2`, with < 600 nM.
On to `CCCN1CC[C@@H](NC(=O)c2ccc(-n3nc(C4CC4)c4c3-c3sc(NC(C)=O)nc3CC4)cc2F)C1`, for which the IC50 was < 600 nM.
As to `CC(=O)Nc1nc2c(s1)-c1c(c(C3CC3)nn1-c1ccc(C(=O)N[C@H]3CC[C@@H](N4CCCC4)CC3)cc1Cl)CC2`, the IC50 was < 600 nM.
With `CC(=O)Nc1nc2c(s1)-c1c(c(C3CC3)nn1[C@H]1CC[C@@H](C(=O)NC3CCN(C4CCCC4)CC3)CC1)CC2` the figure was < 600 nM; with `CC(=O)Nc1nc2c(s1)-c1c(c(C3CC3)nn1-c1ccc(C(=O)N[C@H]3CC[C@@H](N4CCCC4)CC3)c(F)c1)CC2`, < 600 nM; with `CNC(=O)c1ccc(-n2nc(C3CC3)c3c2-c2sc(NC(C)=O)nc2CC3)c(Cl)c1`, < 600 nM.
With `CC(=O)Nc1nc2c(s1)-c1c(c(C3CC3)nn1-c1ccc(C(=O)N[C@H]3CC[C@@H](N4CCCC4)CC3)c(Cl)c1)CC2`, the IC50 is < 600 nM.
Turning to `CC(=O)Nc1nc2c(s1)-c1c(c(C3(C)CC3)nn1-c1ccc(C(=O)NC3CCN(CC4CCCC4)CC3)cc1Cl)CC2`, the IC50 is < 600 nM.
Then `CC(=O)Nc1nc2c(s1)-c1c(c(C3CC3)nn1-c1ccc(C(=O)N(C)[C@H]3CC[C@@H](N4CCCCC4)CC3)c(C)c1)CC2`, with < 600 nM; and `CC(=O)Nc1nc2c(s1)-c1c(c(C3CC3)nn1-c1ccc(N(C)C(=O)[C@H]3CC[C@@H](N4CCCC4)CC3)cc1Cl)CC2`, with < 600 nM; and `CC(=O)Nc1nc2c(s1)-c1c(c(C3CC3)nn1-c1ccc(C(=O)N(C)[C@H]3CC[C@@H](N4CCCC4)CC3)c(C)c1)CC2`, with < 600 nM.
For `CC(=O)Nc1nc2c(s1)-c1c(c(C3CC3)nn1-c1ccc(C(=O)N(C)[C@@H]3CCN(CC4CCCC4)C3)cc1Cl)CC2`, the IC50 is < 600 nM.
As to `CC(=O)Nc1nc2c(s1)-c1c(c(C3CC3)nn1-c1ccc(C(=O)NC3CCN(C4CCOCC4)CC3)c(C)c1)CC2`, the IC50 was < 600 nM.
With `CCN(C(=O)c1ccc(-n2nc(C3CC3)c3c2-c2sc(NC(C)=O)nc2CC3)cc1Cl)[C@H]1CC[C@@H](N2CCCC2)CC1` the figure was < 600 nM.
